Measurements published in patent publication US6034067A, “Serine protease inhibitors” (Akzo Nobel, N.V., priority 1996, dated 2000).

biological target: T1, Human thrombin (Homo sapiens, UniProt P00734); assay: Anti-thrombin assay (hydrolysis of chromogenic substrate S-2238 by thrombin); type: biochemical; conditions: final concentration causing 50% inhibition of the maximum absorbance of the blank; S-2238 substrate, TNP buffer pH 7.4, 37° C., absorbance at 405 nm
T1 construct: purchased Centraal Laboratorium voor Bloedtransfusie, Amsterdam, The Netherlands
Experimental: Thrombin (Factor IIa) is a factor in the coagulation cascade.
At room temperature 0.075 ml and 0.025 ml test compound or reference compound solutions or vehicle are alternately pipetted into the wells of a microtiter plate and these solutions are diluted with 0.115 ml and 0.0165 ml TNP buffer, respectively. […] The plate is incubated (with shaking for 30 s) at 37° C.
All data are collected in an IBM personal computer using LOTUS-MEASURE.

SMILES | IC50 [nM]
N=C(N)NC(=O)CCC(NC(=O)[C@@H]1CCCN1C(=O)[C@@H](CC1CCCCC1)NCC(=O)O)C(=O)c1nccs1 (stereo partly drawn) [Example 2, HOOC-CH2 -D-Cha-Pro-Glu(guanadine)-(2-thiazolyl)] | 34
CCS(=O)(=O)N[C@H](CC1CCCCC1)C(=O)N1CCC[C@H]1C(=O)NC(CCC(=O)NC(=N)N)C(=O)c1nccs1 (stereo partly drawn) [Example 4, EtSO2 -D-Cha-Pro-Glu(guanidine)-(2-thiazolyl)] | 2590
CN[C@H](CC1CCCCC1)C(=O)N1CCC[C@H]1C(=O)NC(CCC(=O)NC(=N)N)C(=O)c1nccs1 (stereo partly drawn) [Example 6, N-Me-D-Cha-Pro-Glu(guanidine)-(2-thiazolyl)] | 320
